Assay results published in US20090317419A1, “Tetramers” (Duke University, priority 2008, published 2009).
Where two headings read alike, the source gives them in different places. Ends that are not written are not given here. * marks the point of attachment. Biotin = O=C1N[C@H]2[C@H](CS[C@H]2CCCCC(=O)*)N1

What was measured:
[1] = system: mAb 13H11 (non-neutralizing anti-gp41 MPER); settings: SPR, mAb 13H11 captured
Method: (§1) Surface Plasmon Resonance (SPR) measurements of tetramer binding to peptide epitopes. Tetramer binding assays were carried out on a BIAcore 3000 (BIAcore/GE Healthcare, Piscataway, N.J.) instrument using mAbs against each specific B cell epitope.
(§2) Each mAb (about 1000 RU) was first captured on anti-human Fc mAb (Pierce, Rockford, Ill.) immobilized on a CM5 sensor chip. Approximately 3000 RU of anti-human Fc mAb was covalently coupled to each flow cell of the sensor chip as described before (Alam et al, Journal of Immunology 178:4424-4435 (2007)). Each B cell tetramer was injected over its epitope specific mAb or a control surface immobilized with irrelevant mAb. For each tetramer binding curve, non-specific binding signals obtained from the control surface were subtracted. The binding assay was monitored at 25° C. and using PBS, pH 7.4, as the running buffer. The BIAevaluation 3.0 software (BIAcore/GE Healthcare, Piscataway, N.J.) was used for SPR binding data analyses.

[2] = system: mAb 2F5 (neutralizing anti-gp41 MPER); settings: SPR, mAb 2F5 captured
Method: as §1, §2

[3] = system: CD19+ B cells of HIV-1 infected subject
Method: Staining of bulk populations for the sorts. Cells from uninfected or HIV-1 infected patients were obtained by leukopheresis under an IRB-approved protocol and were rested in culture overnight in 10% FBS in RPMI-1640 at 37° C. in 5% CO2. Rested cells were enriched for B cells by depletion of non-B cells using magnetic bead separation (BD Biosciences, Mountain View, Calif.). […] Cells were sorted on a BD FACS Aria (BD Biosciences, Mountain View, Calif.) into CD3^− CD14^− CD16^− CD19^+ tetramer and CD3^− CD14^− CD16^− CD19^+ tetramer^+ pools and also as single cells into a 96-well plates containing RNA extraction buffer.

[4] = system: total naïve splenic BALB/c B cells; settings: APC-labeled tetramer
Method: (§3) Cell isolation, serum collection, and PBMC isolations. Heparinized or non-heparanized blood was collected sub-mandibularly 10 days after immunizations. For preparation of peripheral blood lymphocytes for B cell tetramer analysis, PBMC were isolated from blood collected in heparinized tubes (0.2 ml) using Lympholyte M (Cederlane). For Luminex and ELISA assays, sera was isolated from non-heparanized blood and stored at −20° C. until use. Spleen, bone marrow (BM), and peritoneal cavity (PerC) cells were also collected. For most immunizations, tissues were harvested after the 4th boost, except for kinetic studies, in which tissues from mice were harvested after 1, 3 or 7 days after a single immunization. For BM preparations, femora and tibiae were removed, aspirated with tissue medium using 23 gauge needles, filtered with 70 μm cell strainers (BD labware), and RBC-depleted using Tris-buffered ammonium chloride lysis. For splenocyte preparation, spleens were harvested and dissociated into single-cell suspensions either by passage through 70 μm cell strainers in tissue medium or by using frosted glass slides, and blood erythrocytes were depleted with ammonium chloride lysis. For isolation of peritoneal cells, peritoneal cavities of sacrificed mice were lavaged by injection with 10 ml of PBS, followed by gentle massage of the abdomen, and withdrawal of the peritoneal exudates. BM, splenic, and peritoneal single cell suspensions were centrifuged at 1500 rpm for 5 min and resuspended in 5, 10, and 1 ml of tissue media, respectively, for cell counts and immunofluorescence staining. Cell counts were performed in duplicate on a Coulter ZI Dual Threshold Cell Counter (Coulter).
(§4) Antibodies and flow cytometry. Immunofluorescent staining of single cell suspensions (≧2×10^6) was conducted using pre-mixed combinations of fluorochrome-labeled antibodies and APC-conjugated B cell tetramers at empirically-determined optimal concentrations. All antibodies were from BD unless otherwise stated. […] Other reagents included biotinylated antibodies against dump channel markers: Thy1 (Ox7; Abcam), F4/80 (BM8; Abcam), CD11c (clone HL3), Gr-1 (clone RB6-8C5), TER-119, and NK-1.1 (clone PK136), secondary staining SA-Texas Red conjugate; v-amine live/dead violet dye (Molecular Probes), and Fc block (anti-CD16/32; clone 2.4G2).
(§5) Staining was conducted at 4° C. in several sequential steps in FACS staining buffer (1×PBS with 2% FCS, 0.1% NaN3), washing twice between steps. First, cells were incubated with v-amine live/dead dye for 15 min. Next, cells were stained with APC-labeled tetramers for 30 min. Where applicable, this was preceded by addition of cold tetramer at 10 fold molar excess for 1 h. Finally, cells were stained with Fc block for 30 min, followed by incubation with combinations of primary antibody cocktails for 30 min, and secondary staining with SA-Texas Red for 30 min.
(§6) Data were acquired using an LSRII flow cytometer and Cell Quest software (BD Immunocytometry systems). A minimum of 250000 events were acquired per sample. FACS Analysis was performed using FlowJo software (Tree Star). For analysis, single cells were positively gated based on their forward scatter height vs. forward scatter area and side scatter height vs. side scatter area profiles, lymphocytes were then positively gated based on their forward and side scatter profile (live lymphocyte gate), residual dead cells were excluded with negative gating on v-amine live/dead dye, and all irrelevant non-B cells were excluded with negative gating on dump markers Thy1, F4/80, CD11c, Gr-1, TER-119, and NK-1.1.

[5] = system: total naïve splenic C57BL/6 B cells; settings: C57BL/6, APC-labeled tetramer
Method: as §3, §4, §5, §6

[6] = system: B Cell Receptor of purified naïve BALB/c splenic B cells; settings: 10 μg/ml anti-Ig, 37° C., by 15 min
Method: B cell purification, BCR internalization assay, and microscopy of BCR cap formation. Splenic B cells were purified by negative depletion of CD43-expressing non B cells with anti-mouse CD43 MACS beads (Miltenyi Biotechnology) resulting in fractions >90% B cells.
For analysis of BCR internalization by flow cytometry, purified B cells were pre-incubated on ice for 30 min with either a 95:5 unlabeled/R-PE-labeled mixture of 10 μg/ml goat anti-mouse-IgM+IgG (H+L) F(ab)2 fragments (Jackson ImmunoResearch laboratories). To remove excess reagent, cells were then washed, resuspended in DMEM 10% FCS, and stimulated by warming to 37° C. (or at 4° C. as a control) for the indicated time points. […] Percent internalization for tetramers was calculated on gp41 MPER+B220+ subsets (the gp41 MPER gate set based on the FMO control) by the formula [% gp41 MPER (To)−% gp41 MPER (Tn)]/% Sp62 (To)×100. In other experiments, cells were pre-incubated with either 5 mg/ml mannan, 125 mM α-methyl-mannopyranoside (Sigma-Aldrich), or 10 μg/ml unlabeled goat anti-mouse-IgM+IgG (H+L) F(ab)2 fragments, prior to staining with APC-labeled tetramers.

With “Biotin-GGGQQEKNEQELLELDKWASLWN [gp41 MPER tetramer]” the koff [1] was 8.1 s^−1 × 10^−3, the kon [1] was 206 M^−1s^−1 × 10^3 and the koff [2] was 0.37 s^−1 × 10^−3. The kon [2] was 174 M^−1s^−1 × 10^3, the “tetramer positive cells of CD19+ B cells” value ([3]; before sorting, non-B cell depleted PBMC) was 0.15% and the “tetramer positive cells of CD19+ B cells” value ([3]; reanalysis after sorting of tetramer positive gate) was 45.3%. For the same substance, the “fraction of total naïve splenic B cell repertoire binding tetramer” value [4] was over 5%, the “fraction of total naïve splenic B cell repertoire binding tetramer” value [5] was under 0.3% and the tetramer downmodulation [6] was over 80%.
